Data reported in patent US20240158368A1, “Pyrrolidine Main Protease Inhibitors as Antiviral Agents” (AbbVie Inc., priority 2022, published 2024).
pEC50: −log10 of the molar value.

Assays:
[1] = tested on: OC43 virus; test: microbe, parasite or virus in culture; assay type: cell-based; details: Betacoronavirus 1, OC43, Huh-7, read-out: Antiviral OC43 EC50 (μM)
[2] = target: SARS-CoV-2 Mpro (Severe acute respiratory syndrome coronavirus 2 (2019-nCoV) (SARS-CoV-2), UniProt P0DTD1); assay type: biochemical
[3] = target: MERS Mpro (Middle East respiratory syndrome-related coronavirus (isolate United Kingdom/H123990006/2012) (MERS-CoV) (Betacoronavirus England 1), UniProt K9N7C7); test: biochemical
[4] = in vitro; details: PAMPA
[5] = in vitro; details: rat, microsomes, pH 7.4
[6] = target: OC43 Mpro (Human coronavirus OC43 (HCoV-OC43), UniProt P0C6X6); assay type: biochemical
[7] = target: 229E Mpro (Human coronavirus 229E (HCoV-229E), UniProt P0C6X1); assay type: biochemical
[8] = in vitro; details: human, microsomes, pH 7.4
[9] = target: SARS-CoV-1 Mpro (Severe acute respiratory syndrome coronavirus (SARS-CoV), UniProt P0C6X7); assay type: biochemical
[10] = tested on: 229E virus; test: organism not typed; assay type: cell-based; details: Huh-7, read-out: Antiviral 229E EC50 (μM)
[11] = tested on: SARS-CoV-2 (strain USA-WA1/2020); test: microbe, parasite or virus in culture; assay type: cell-based; details: Severe acute respiratory syndrome coronavirus 2; HeLa-ACE2 cells; read-out: Antiviral CoV-2 EC50

Chain of MERS Mpro (K9N7C7 3248-3553 limits assumed): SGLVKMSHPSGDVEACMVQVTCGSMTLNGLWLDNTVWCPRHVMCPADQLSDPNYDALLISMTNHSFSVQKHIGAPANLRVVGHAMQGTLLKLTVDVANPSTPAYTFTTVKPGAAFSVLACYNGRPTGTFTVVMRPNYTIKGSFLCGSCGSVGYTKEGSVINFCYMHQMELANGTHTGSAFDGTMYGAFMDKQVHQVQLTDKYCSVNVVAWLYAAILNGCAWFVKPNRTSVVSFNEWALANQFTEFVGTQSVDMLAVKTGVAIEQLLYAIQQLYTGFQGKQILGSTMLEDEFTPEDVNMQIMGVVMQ
Chain of OC43 Mpro (P0C6X6 3247-3549 limits assumed): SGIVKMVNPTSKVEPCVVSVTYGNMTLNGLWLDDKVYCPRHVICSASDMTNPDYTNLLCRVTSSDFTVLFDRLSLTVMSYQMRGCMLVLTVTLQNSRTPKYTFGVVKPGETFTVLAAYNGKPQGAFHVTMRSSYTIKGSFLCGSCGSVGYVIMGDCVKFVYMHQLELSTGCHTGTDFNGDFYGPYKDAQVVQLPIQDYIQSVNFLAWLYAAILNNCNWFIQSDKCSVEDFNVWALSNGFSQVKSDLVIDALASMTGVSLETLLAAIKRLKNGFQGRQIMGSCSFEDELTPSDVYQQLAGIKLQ
Chain of 229E Mpro (P0C6X1 2966-3267 limits assumed): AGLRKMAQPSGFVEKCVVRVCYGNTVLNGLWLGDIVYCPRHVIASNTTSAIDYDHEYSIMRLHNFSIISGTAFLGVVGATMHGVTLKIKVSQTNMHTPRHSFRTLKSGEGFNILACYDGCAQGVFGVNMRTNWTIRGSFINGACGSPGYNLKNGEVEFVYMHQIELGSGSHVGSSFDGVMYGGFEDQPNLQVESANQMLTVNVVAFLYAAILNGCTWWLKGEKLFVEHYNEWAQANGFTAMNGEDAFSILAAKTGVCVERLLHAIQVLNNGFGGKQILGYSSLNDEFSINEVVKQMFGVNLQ

Compound	EC50 [1] [µM]	pEC50 [2]	pEC50 [3]	Papp [4] [×10⁻⁶ cm/s]	CLint scaled [5] [mL/min/kg]	pEC50 [6]	pEC50 [7]	CLint scaled [8] [mL/min/kg]	pEC50 [9]	EC50 [10] [µM]	pEC50 [11]
O=C(N[C@@H]1CCN(c2c(C(=O)N3CCOCC3)cc(Cl)cc2C(F)(F)F)C1)c1cc(=O)[nH]c2c(F)cccc12 [Compound 36]	0.0487	9.31	8.99	14.3	403	9.08	8.62	95	8.84	0.0578	8.04
O=C(N[C@@H]1CCN(c2c(C(=O)N3CCOCC3)cc(Br)cc2C(F)(F)F)C1)c1cc(=O)[nH]c2ccccc12 [Compound 56]	0.014	9.35	9.04	10.9	400	9.13	8.74	157	8.35	0.062	7.74
N#Cc1cc(C(=O)N2CCOCC2)c(N2CC[C@@H](NC(=O)c3cc(=O)[nH]c4c(F)c(F)ccc34)C2)c(C(F)(F)F)c1 [Compound 8]	0.88	9.37	8.83	5.11	< 60	8.33	8.48	< 35	8.82	0.25	7.72
N#Cc1cc(C(=O)N2CCOCC2)c(N2CC[C@@H](NC(=O)c3c(F)c(=O)[nH]c4c(F)cccc34)C2)c(C(F)(F)F)c1 [Compound 5]	0.047	9.32	8.90	7.23	< 60	8.90	8.84	< 36.7	8.82	0.039	7.99
O=C(N[C@@H]1CCN(c2c(C(=O)N3CCOCC3)cc(Br)cc2C(F)(F)F)C1)c1cc(=O)[nH]c2c(F)c(F)ccc12 [Compound 51]	0.0584	9.38	9.17	14.5	447	8.96	8.45	125	8.91	0.0475	7.80
N#Cc1cc(C(=O)N2CCOCC2)c(N2C[C@H](NC(=O)c3cc(=O)[nH]c4c(F)c(F)ccc34)CC2=O)c(C(F)(F)F)c1 [Compound 34]	7.32	8.95	8.64	1.04	< 45	7.04	7.38	< 26.7	8.53	3.37	–
COc1cccc2[nH]c(=O)cc(C(=O)N[C@@H]3CCN(c4c(C(=O)N5CCOCC5)cc(C#N)cc4C(F)(F)F)C3)c12 [Compound 9]	0.28	9.33	8.74	0.34	< 58.3	8.55	8.70	< 35	9.10	0.11	6.50
O=C(N[C@@H]1CCN(c2c(C(=O)N3CCOCC3)cc(Br)cc2C(F)(F)F)C1)c1cc(C(F)F)[nH]c(=O)c1 [Compound 61]	11.4	8.71	8.49	15.7	83.3	7.28	6.44	51.7	8.34	63.1	6.38
O=C(N[C@@H]1CCN(c2c(C(=O)N3CCOCC3)cc(Br)cc2C(F)(F)F)C1)c1cc(=O)[nH]c2c(Cl)cccc12 [Compound 58]	0.864	9.38	9.04	17.9	1000	8.23	7.61	365	8.97	0.983	–
O=C(N[C@@H]1CCN(c2c(C(=O)N3CCOCC3)cc(Br)cc2C(F)(F)F)C1)c1c(F)c(=O)[nH]c2c(F)cccc12 [Compound 48]	0.031	9.37	9.05	17.9	210	9.36	8.84	81.7	8.94	0.044	8.24
Cc1cc(C(=O)N2CCOCC2)c(N2CC[C@@H](NC(=O)c3cc(=O)[nH]c4c(F)cccc34)C2)c(C2CC2)c1 [Compound 45]	< 0.03	9.38	9.15	14.7	942	9.29	8.82	352	–	0.0561	7.73
COc1cccc2[nH]c(=O)cc(C(=O)N[C@H]3CN(c4c(C(=O)N5CCOCC5)cc(C)cc4C4CC4)C[C@@H]3OC)c12 [Compound 84]	0.019	9.22	8.61	3.6	195	9.19	8.63	120	–	0.141	7.45
Cc1cc(C(=O)N2CCOCC2)c(N2C[C@H](NC(=O)c3cc(=O)[nH]c4c(F)cc(F)cc34)CC2=O)c(C2CC2)c1 [Compound 74]	0.429	9.23	8.89	3.54	< 56.7	8.47	8.14	< 33.3	8.84	0.248	7.28
COc1cccc2[nH]c(=O)cc(C(=O)N[C@@H]3CCN(c4c(Cl)cc(C)cc4C(=O)N4CCOCC4)C3)c12 [Compound 85]	0.21	8.85	8.81	3.19	288	8.64	8.04	103	8.50	0.382	6.56
O=C(N[C@@H]1CCN(c2c(C(=O)N3CCOCC3)cc(Br)cc2C(F)(F)F)C1)c1c(F)c(=O)[nH]c2c(F)c(F)ccc12 [Compound 50]	0.303	9.30	8.72	16.2	165	8.92	8.35	190	8.65	0.319	7.94
COc1cccc2[nH]c(=O)cc(C(=O)N[C@@H]3CCN(c4c(C(=O)N5CCOCC5)cc(C)cc4C4CC4)C3)c12 [Compound 81]	0.013	9.31	8.64	2.81	227	9.18	8.67	65	8.86	0.073	7.74
COc1cccc2[nH]c(=O)cc(C(=O)N[C@@H]3CCN(c4c(C(=O)N5CCOCC5)cc(Cl)nc4C4CC4)C3)c12 [Compound 82]	0.083	9.00	8.54	3.1	51.7	8.79	7.87	56.7	–	1.17	6.62
O=C(N[C@@H]1CCN(c2c(C(=O)N3CCOCC3)cc(Br)cc2C(F)(F)F)C1)c1cc(=O)[nH]c2c(F)cc(F)cc12 [Compound 49]	0.168	9.37	9.02	15.6	573	8.79	8.33	190	8.96	0.0959	7.95
Cc1cc(C(=O)N2CCOCC2)c(N2C[C@H](NC(=O)c3cc(=O)[nH]c4c(F)c(F)ccc34)C[C@H]2C)c(C2CC2)c1 [Compound 83]	0.023	9.38	8.86	15.7	1430	9.38	8.75	1120	8.82	0.029	–
CN1CCN(C(=O)c2cc(C#N)cc(C(F)(F)F)c2N2CC[C@@H](NC(=O)c3cc(=O)[nH]c4c(F)cccc34)C2)CC1 [Compound 14]	0.19	9.34	8.88	2.73	56.7	8.70	8.68	< 30	8.56	0.15	7.89
